Measurements: the supplement of paper PMC12463676, “Small-molecule dissolution of stress granules by redox modulation benefits ALS models” (Nature Chemical Biology, 2025)

Key:
lipoamide = compound: NC(=O)CCCCC1CCSS1 [lipoamide]; test: thermal stability z-score vs DMSO; higher = more thermally stabilized by treatment; details: HeLa, lipoamide concentration 100 µM
Protocol: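 Cellular thermal proteome profiling in HeLa cells. Cells were treated with 100 µM lipoamide for 1 h, with or without 1 mM arsenate for a further 1 h, then heated to ten temperatures (37-66.3 °C), and soluble protein was quantified by TMT mass spectrometry relative to 0.1% DMSO controls. The thermal stability score (sum of log2 fold changes minus the abundance score) was transformed to a z-score; mean of n = 3 experiments.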

potassium arsenate = compound: O=[As]([O-])(O)O.[K+] [potassium arsenate]; test: as above; details: HeLa; arsenate concentration 1 mM
Protocol: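 Cellular thermal proteome profiling in HeLa cells treated with 1 mM arsenate for 1 h (DMSO pretreatment), heated to ten temperatures (37-66.3 °C). Soluble protein was quantified by TMT mass spectrometry relative to DMSO controls; the thermal stability score was transformed to a z-score; mean of n = 3 experiments.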

[1] = arsenate co-treatment: 1 mM arsenate 1 h
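Note: each temperature applied for 3 min, abundance score taken as mean log2 fold change at the two lowest temperatures, z-score obtained by mean subtraction and division by SD.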

Chain of UniProt Q8TBF4 (Q8TBF4 whole entry): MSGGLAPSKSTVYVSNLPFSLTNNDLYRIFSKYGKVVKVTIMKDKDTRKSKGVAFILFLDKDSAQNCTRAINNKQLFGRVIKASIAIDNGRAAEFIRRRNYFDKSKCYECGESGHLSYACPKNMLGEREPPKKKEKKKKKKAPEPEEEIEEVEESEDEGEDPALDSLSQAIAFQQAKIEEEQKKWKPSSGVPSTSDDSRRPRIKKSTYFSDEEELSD
Chain of UniProt Q96PY5 (Q96PY5 whole entry): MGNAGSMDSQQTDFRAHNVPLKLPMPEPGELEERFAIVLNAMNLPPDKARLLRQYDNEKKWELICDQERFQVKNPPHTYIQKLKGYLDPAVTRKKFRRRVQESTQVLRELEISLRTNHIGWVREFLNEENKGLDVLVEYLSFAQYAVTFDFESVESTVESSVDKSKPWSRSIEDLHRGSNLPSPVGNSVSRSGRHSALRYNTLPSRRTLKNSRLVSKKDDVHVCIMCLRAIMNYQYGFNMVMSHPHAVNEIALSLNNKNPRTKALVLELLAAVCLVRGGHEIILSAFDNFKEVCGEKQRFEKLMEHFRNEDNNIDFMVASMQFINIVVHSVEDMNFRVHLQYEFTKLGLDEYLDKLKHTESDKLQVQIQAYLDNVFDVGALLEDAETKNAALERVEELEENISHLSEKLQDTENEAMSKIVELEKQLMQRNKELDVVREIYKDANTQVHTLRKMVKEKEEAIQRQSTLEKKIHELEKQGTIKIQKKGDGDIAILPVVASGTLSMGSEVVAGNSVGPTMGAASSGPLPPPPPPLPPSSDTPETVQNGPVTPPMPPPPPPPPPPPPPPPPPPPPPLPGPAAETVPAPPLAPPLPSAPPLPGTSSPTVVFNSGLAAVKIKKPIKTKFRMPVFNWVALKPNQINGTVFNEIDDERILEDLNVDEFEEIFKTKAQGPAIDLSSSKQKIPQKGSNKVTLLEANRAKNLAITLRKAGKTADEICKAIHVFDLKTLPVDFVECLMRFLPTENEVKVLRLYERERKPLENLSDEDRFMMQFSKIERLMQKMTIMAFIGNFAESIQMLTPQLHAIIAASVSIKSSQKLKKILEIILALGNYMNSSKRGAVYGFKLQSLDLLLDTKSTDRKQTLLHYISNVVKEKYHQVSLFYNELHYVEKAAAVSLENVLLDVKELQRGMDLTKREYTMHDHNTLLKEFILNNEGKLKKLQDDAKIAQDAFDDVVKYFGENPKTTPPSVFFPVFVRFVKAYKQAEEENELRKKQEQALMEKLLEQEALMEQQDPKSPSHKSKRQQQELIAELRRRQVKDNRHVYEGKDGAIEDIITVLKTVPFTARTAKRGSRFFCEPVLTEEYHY
Chain of UniProt Q9NYV6 (Q9NYV6 whole entry): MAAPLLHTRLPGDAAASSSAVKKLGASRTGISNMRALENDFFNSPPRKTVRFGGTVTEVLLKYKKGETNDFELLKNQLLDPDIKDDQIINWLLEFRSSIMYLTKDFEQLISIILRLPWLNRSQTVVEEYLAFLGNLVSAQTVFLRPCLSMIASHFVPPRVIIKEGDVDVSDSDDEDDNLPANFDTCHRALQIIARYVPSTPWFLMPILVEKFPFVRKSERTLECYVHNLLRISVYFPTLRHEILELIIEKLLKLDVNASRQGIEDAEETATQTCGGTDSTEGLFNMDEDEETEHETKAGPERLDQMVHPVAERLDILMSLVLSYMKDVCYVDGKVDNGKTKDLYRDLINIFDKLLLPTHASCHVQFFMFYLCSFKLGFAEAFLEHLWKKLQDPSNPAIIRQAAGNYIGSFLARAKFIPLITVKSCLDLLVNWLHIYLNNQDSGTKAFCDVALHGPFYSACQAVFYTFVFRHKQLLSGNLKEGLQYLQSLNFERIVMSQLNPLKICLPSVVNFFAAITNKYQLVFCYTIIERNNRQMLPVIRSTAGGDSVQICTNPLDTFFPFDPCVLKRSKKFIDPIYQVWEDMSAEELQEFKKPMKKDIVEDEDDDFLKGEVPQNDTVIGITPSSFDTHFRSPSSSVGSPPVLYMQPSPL
Chain of UniProt Q5T0N5 (Q5T0N5 whole entry): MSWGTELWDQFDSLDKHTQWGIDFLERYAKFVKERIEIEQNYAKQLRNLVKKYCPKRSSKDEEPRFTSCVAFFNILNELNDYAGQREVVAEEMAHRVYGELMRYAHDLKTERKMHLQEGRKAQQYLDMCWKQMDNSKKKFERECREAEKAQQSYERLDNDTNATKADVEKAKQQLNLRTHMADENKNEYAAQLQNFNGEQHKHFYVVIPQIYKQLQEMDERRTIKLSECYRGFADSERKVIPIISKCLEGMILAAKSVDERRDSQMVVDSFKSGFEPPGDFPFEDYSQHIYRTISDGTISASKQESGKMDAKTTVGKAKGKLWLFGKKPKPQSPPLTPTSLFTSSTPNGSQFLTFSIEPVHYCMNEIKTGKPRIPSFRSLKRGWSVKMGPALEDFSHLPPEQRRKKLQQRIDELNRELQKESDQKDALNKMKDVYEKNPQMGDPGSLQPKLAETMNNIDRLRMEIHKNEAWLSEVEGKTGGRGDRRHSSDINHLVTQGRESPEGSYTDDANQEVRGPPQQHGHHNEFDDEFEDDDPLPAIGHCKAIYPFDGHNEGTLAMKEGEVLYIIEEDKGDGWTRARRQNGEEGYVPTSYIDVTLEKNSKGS
Chain of UniProt P14384 (P14384 whole entry): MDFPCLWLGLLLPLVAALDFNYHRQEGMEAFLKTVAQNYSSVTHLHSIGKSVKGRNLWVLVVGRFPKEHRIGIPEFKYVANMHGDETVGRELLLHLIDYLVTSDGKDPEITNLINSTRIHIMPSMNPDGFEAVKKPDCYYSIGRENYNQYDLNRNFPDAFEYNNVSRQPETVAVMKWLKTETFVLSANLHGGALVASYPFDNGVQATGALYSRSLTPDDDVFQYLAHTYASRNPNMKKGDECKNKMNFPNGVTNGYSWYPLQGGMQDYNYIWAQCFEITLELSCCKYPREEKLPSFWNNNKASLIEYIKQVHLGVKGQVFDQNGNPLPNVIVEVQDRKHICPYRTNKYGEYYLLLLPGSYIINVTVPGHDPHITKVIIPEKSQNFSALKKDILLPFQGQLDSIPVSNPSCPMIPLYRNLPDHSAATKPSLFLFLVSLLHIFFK
Chain of UniProt Q9NQS3 (Q9NQS3 whole entry, looked up): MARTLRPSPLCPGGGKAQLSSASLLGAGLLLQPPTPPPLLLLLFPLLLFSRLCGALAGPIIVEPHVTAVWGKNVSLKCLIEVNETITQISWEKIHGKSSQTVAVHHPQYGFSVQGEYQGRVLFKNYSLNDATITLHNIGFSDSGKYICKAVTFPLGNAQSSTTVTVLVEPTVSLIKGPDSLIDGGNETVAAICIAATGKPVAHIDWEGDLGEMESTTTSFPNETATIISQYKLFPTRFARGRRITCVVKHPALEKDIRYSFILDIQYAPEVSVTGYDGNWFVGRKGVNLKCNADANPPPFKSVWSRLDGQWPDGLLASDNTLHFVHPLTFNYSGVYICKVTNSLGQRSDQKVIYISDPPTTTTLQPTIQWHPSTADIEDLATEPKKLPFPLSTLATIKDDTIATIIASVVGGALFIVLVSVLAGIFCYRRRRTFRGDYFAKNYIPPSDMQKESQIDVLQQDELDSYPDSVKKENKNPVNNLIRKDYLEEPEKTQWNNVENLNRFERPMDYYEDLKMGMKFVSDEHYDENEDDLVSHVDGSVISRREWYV
Chain of UniProt P09038 (P09038 whole entry): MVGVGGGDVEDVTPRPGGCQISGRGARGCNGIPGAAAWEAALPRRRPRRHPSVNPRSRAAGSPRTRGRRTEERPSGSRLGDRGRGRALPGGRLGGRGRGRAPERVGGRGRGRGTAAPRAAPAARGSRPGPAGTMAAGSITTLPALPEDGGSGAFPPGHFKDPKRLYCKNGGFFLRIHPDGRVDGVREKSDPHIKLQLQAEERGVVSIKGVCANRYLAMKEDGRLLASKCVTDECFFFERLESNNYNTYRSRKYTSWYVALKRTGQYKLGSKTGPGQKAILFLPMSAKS
Chain of UniProt P63208 (P63208 whole entry): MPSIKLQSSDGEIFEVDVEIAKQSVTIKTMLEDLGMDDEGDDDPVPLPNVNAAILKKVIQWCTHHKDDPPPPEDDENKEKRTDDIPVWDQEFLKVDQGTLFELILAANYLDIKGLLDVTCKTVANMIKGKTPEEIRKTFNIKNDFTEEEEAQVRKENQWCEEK
Chain of UniProt Q96EY9 (Q96EY9 whole entry): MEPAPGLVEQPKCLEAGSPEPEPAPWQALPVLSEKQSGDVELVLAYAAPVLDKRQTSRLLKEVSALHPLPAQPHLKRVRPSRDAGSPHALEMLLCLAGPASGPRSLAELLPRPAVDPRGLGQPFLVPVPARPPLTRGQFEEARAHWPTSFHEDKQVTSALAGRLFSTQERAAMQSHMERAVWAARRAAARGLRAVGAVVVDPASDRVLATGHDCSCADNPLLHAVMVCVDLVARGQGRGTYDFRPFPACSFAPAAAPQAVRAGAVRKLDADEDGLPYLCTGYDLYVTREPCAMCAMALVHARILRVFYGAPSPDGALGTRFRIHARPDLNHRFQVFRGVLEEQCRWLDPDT
Chain of UniProt Q9NX62 (Q9NX62 whole entry): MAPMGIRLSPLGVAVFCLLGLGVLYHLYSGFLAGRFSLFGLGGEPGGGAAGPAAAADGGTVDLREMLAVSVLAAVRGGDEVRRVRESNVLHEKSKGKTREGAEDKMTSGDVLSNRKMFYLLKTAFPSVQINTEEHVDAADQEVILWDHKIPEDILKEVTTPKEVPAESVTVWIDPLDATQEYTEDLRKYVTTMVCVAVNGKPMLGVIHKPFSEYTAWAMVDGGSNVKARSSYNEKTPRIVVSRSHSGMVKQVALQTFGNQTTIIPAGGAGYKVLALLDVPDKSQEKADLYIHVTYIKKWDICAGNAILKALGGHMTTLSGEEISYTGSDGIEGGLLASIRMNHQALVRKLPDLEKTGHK
Chain of UniProt Q15102 (Q15102 whole entry): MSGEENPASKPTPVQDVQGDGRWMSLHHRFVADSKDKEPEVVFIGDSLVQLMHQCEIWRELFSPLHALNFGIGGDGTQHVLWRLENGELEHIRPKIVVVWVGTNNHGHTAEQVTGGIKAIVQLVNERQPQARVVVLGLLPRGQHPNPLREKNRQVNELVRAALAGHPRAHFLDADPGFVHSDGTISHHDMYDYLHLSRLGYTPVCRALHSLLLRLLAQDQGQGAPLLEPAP

Target	thermal stability z-score (lipoamide; [1])	thermal stability z-score (lipoamide; arsenate co-treatment: none)	thermal stability z-score (potassium arsenate)
PLIN3 (UniProt O60664)	0.559	0.461	0.704
PRRC1 (UniProt Q96M27)	0.101	0.135	-0.142
CPM (UniProt P14384)	0.0529	-0.163	0.405
POGLUT1 (UniProt Q8NBL1)	-3.26	-3.23	1.16
LIG3 (UniProt P49916)	-0.0256	0.0387	-1.05
ALAS1 (UniProt P13196)	0.0114	-0.0767	-0.0697
BICD2 (UniProt Q8TD16)	0.184	0.121	0.755
MRPL33 (UniProt O75394)	-0.539	-0.723	-0.812
FNBP1L (UniProt Q5T0N5)	-0.051	0.0394	-0.284
LGALS3 (UniProt P17931)	0.762	0.918	-0.377
ACAP2 (UniProt Q15057)	-0.177	0.0236	-0.178
SKP1 (UniProt P63208)	0.337	0.557	-0.000141
RRN3 (UniProt Q9NYV6)	-0.321	-0.104	-2.42
GNL3L (UniProt Q9NVN8)	-0.151	0.0609	-0.0324
ZCRB1 (UniProt Q8TBF4)	0.506	0.194	0.155
CLEC16A (UniProt Q2KHT3)	0.0777	-0.0307	-0.437
SNX6 (UniProt Q9UNH7)	0.175	0.276	0.277
SCAF8 (UniProt Q9UPN6)	-0.0718	-0.03	0.155
WDR45 (UniProt Q9Y484)	-0.0374	0.11	0.292
CHD8 (UniProt Q9HCK8)	-0.13	-0.00227	0.147
TSEN54 (UniProt Q7Z6J9)	-0.815	0.162	0.795
TMEM23|SGMS1	0.177	-0.142	-0.151
PAFAH1B3 (UniProt Q15102)	0.574	0.345	0.275
CPNE8 (UniProt Q86YQ8)	0.773	1.11	-0.648
COL4A3BP (UniProt Q9Y5P4)	-0.466	0.862	0.568
ANKS1A (UniProt Q92625)	-0.553	0.198	0.294
MARC1 (UniProt Q5VT66)	0.204	0.806	1.12
HSPG2 (UniProt P98160)	0.252	0.126	2.43

Target	thermal stability z-score (lipoamide; [1])	thermal stability z-score (lipoamide; arsenate co-treatment: none)	thermal stability z-score (potassium arsenate)
GLS (UniProt O94925)	-0.371	-0.00934	0.351
STX12 (UniProt Q86Y82)	0.379	0.716	0.452
CUL4B (UniProt Q13620)	0.0797	-0.0817	-0.051
FASTKD5 (UniProt Q7L8L6)	-1.07	0.633	0.437
PITHD1 (UniProt Q9GZP4)	-0.537	0.337	0.158
N4BP1 (UniProt O75113)	0.103	0.0755	-0.0968
TACO1 (UniProt Q9BSH4)	0.0383	-0.0229	-0.113
PHF10 (UniProt Q8WUB8)	-0.191	-0.061	-0.359
LEO1 (UniProt Q8WVC0)	1.13	0.765	0.239
GALT (UniProt P07902)	-0.362	-0.325	0.174
WASF2 (UniProt Q9Y6W5)	-0.14	-0.155	-0.206
SPRYD7 (UniProt Q5W111)	0.397	0.0188	-0.339
TENM3 (UniProt Q9P273)	0.179	-0.452	-0.147
CDC123 (UniProt O75794)	0.8	-0.214	3.29
MORC3 (UniProt Q14149)	-0.165	-0.119	-0.054
FMNL2 (UniProt Q96PY5)	0.0679	-0.0271	-0.048
CAMKMT (UniProt Q7Z624)	0.0977	-0.0333	-0.235
FGF2 (UniProt P09038)	-0.298	0.269	-1.74
CUL2 (UniProt Q13617)	0.23	0.0777	-0.256
LYSMD2 (UniProt Q8IV50)	1.24	0.886	1.46
TUBGCP5 (UniProt Q96RT8)	-0.335	-0.139	-0.119
UVRAG (UniProt Q9P2Y5)	-0.0868	-0.247	-0.352
NECTIN3 (UniProt Q9NQS3)	-0.126	-0.303	0.432
ATXN2L (UniProt Q8WWM7)	0.44	0.347	-0.118
ADAT3 (UniProt Q96EY9)	-0.293	0.276	-0.301
SLC25A13 (UniProt Q9UJS0)	-0.445	-0.77	-0.312
IMPAD1 (UniProt Q9NX62)	-0.426	-0.356	-0.352
